The test system of data set [1] is TTR. The data set can be described thus: TTR editing in HEK293_Cas9 cells transfected with dgRNAs (Table 4). The data set is classed as cell-based, human. The conditions noted are these: HEK293_Cas9 cells (constitutively express Spy Cas9) transfected with dgRNAs. The procedure, abridged:
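Percent editing, taken from amplicon NGS as the fraction of all reads carrying insertions, deletions or substitutions, was measured 24, 48 or 72 h after delivery. Delivery used RNAiMAX lipoplexes of 25 nM each crRNA and trRNA into HEK293 cells stably expressing Spy Cas9.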

Data set [2] has as its system TTR. The data set can be described thus: TTR editing in HUH7 cells transfected with Spy Cas9 mRNA and dgRNAs (Table 5). The data set is classed as cell-based, human. The following applies: HUH7 cells co-transfected with Spy Cas9 mRNA (SEQ ID NO:2) and dgRNAs. The procedure, abridged:
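Percent editing is the share of NGS reads at the TTR target carrying insertions, deletions or substitutions, from amplicon sequencing of genomic DNA harvested at 24, 48 or 72 h. HUH7 cells first received Cas9 mRNA (100 ng) by lipofection, then dual-guide RNA (crRNA and tracer, 25 nM each).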

For data set [3], the system named is TTR. The experiment in a line: TTR editing in primary human hepatocytes electroporated with Spy Cas9 protein loaded with dgRNAs (Table 7). It is filed as cell-based. The conditions noted are these: dgRNA electroporated with Spy Cas9 protein (RNP). The procedure, abridged:
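Editing efficiency is the fraction of NGS reads carrying insertions, deletions or substitutions at the TTR target, measured on MiSeq amplicons from DNA harvested 24, 48 or 72 h post-delivery. Cas9–dgRNA ribonucleoprotein was nucleofected (P3 buffer, EX-147) into primary human or cyno hepatocytes.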

The subject of data set [4] is TTR. The experiment in a line: TTR editing in primary human hepatocytes transfected with Spy Cas9 mRNA and dgRNAs (Table 9). The data set is classed as cell-based. The following applies: dgRNA co-transfected with Spy Cas9 mRNA (SEQ ID NO:2). In a few lines:
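PHH sequentially lipofected with Spy Cas9 mRNA (100 ng), then crRNA plus tracrRNA (25 nM each) dual-guide lipoplex. Cells harvested 24, 48 or 72 h post-transfection; TTR target amplicons sequenced on Illumina MiSeq, editing given as percent reads with indels or substitutions over total reads.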

Here are results for 13 sequences from patent US11795460B2, “Compositions and methods for TTR gene editing and treating ATTR amyloidosis” (Intellia Therapeutics, Inc., priority 2017, dated 2023).

Regarding “AUAGGAGUAGGGGCUCAGCA (tested as dual guide RNA, chemistry not given here) [CR003383]”, the “Avg % Deletion” value is given as 15.35% in the data set with TTR [1], 41.19% with TTR [2], 5.27% in the data set on TTR [3] and 13.70% in the data set with TTR [4]. Besides, the “Avg % Edit” value in the data set with TTR [1] was 40.47%; with TTR [2] it was 42.89%; in the data set with TTR [3] it was 8.57%; in the data set on TTR [4], 15.70%. For the same sequence, the “Avg % Insert” value amounted to 25.12% in the data set with TTR [1], 2.14% in the data set on TTR [2], 3.37% in the data set on TTR [3] and 2.07% in the data set on TTR [4].
As for “CCUCUGCAUGCUCAUGGAAU (tested as dual guide RNA, chemistry not given here) [CR003370]”, the “Avg % Deletion” value in the data set on TTR [1] was 29.73%; with TTR [2], 35.55%; with TTR [3], 0.90%; with TTR [4], 0.50%. Moreover, the “Avg % Edit” value in the data set on TTR [1] is recorded as 34.22%; with TTR [2], 39.16%; in the data set with TTR [3], 15.27%; in the data set with TTR [4], 2.83%. Further, the “Avg % Insert” value with TTR [1] is given as 4.49%; in the data set on TTR [2], 4.83%; in the data set on TTR [3] it was 14.43%; in the data set on TTR [4] it was 2.33%.
As to “ACCUCUGCAUGCUCAUGGAA (tested as dual guide RNA, chemistry not given here) [CR003371]”, the “Avg % Deletion” value came to 21.76% in the data set on TTR [1], 35.65% with TTR [2], 1.87% with TTR [3] and 0.73% in the data set with TTR [4]. In addition, the “Avg % Edit” value in the data set on TTR [1] was found to be 25.60%; in the data set on TTR [2], 40.47%; in the data set on TTR [3] it was 16.20%; in the data set with TTR [4] it was 3.40%. Further, the “Avg % Insert” value with TTR [1] is recorded as 3.84%; in the data set on TTR [2], 6.07%; in the data set on TTR [3], 14.47%; in the data set on TTR [4] it was 2.67%.
Regarding “CAGAGGACACUUGGAUUCAC (tested as dual guide RNA, chemistry not given here) [CR003343]”, the “Avg % Deletion” value is given as 19.53% with TTR [1], 66.97% with TTR [2], 1.50% in the data set on TTR [3] and 2.60% in the data set with TTR [4]. Besides, the “Avg % Edit” value in the data set on TTR [1] is on record as 24.36%; in the data set with TTR [2] it was 76.13%; with TTR [3], 77.10%; in the data set with TTR [4], 55.03%. Further, the “Avg % Insert” value with TTR [1] was 4.82%; in the data set on TTR [2], 9.58%; in the data set on TTR [3] it was 75.63%; in the data set on TTR [4], 52.40%.
In the case of “CUGGUAUUUGUGUCUGAGGC (tested as dual guide RNA, chemistry not given here) [CR003341]”, the “Avg % Deletion” value with TTR [1] is on record as 13.31%; in the data set on TTR [2] it was 13.20%; in the data set on TTR [3], 4.40%; with TTR [4], 9.07%. For the same sequence, the “Avg % Edit” value in the data set on TTR [1] is given as 20.04%; in the data set with TTR [2] it was 20.58%; with TTR [3], 11.43%; with TTR [4], 15.83%. For the same sequence, the “Avg % Insert” value is 6.73% in the data set with TTR [1], 7.78% in the data set with TTR [2], 7.03% with TTR [3] and 6.80% in the data set with TTR [4].
For “ACACAAAUACCAGUCCAGCA (tested as dual guide RNA, chemistry not given here) [CR003339]”, the “Avg % Deletion” value with TTR [1] was determined as 6.98%; in the data set on TTR [2], 20.13%; in the data set with TTR [3], 34.07%; with TTR [4], 34.23%. Besides, the “Avg % Edit” value in the data set on TTR [1] was 56.37%; in the data set on TTR [2] it was 79.97%; in the data set on TTR [3], 43.00%; in the data set on TTR [4], 36.43%. The “Avg % Insert” value in the data set on TTR [1] was determined as 49.39%; in the data set with TTR [2], 60.55%; in the data set with TTR [3], 8.93%; in the data set on TTR [4], 2.27%.
“AGCCUUUCUGAACACAUGCA (tested as dual guide RNA, chemistry not given here) [CR003351]”: the “Avg % Deletion” value was 21.24% in the data set with TTR [1], 27.49% with TTR [2], 20.97% in the data set on TTR [3] and 16.37% in the data set with TTR [4]. Further, the “Avg % Edit” value in the data set on TTR [1] is on record as 49.67%; in the data set on TTR [2], 63.51%; with TTR [3] it was 51.77%; in the data set on TTR [4], 26.50%. In addition, the “Avg % Insert” value in the data set with TTR [1] stood at 28.42%; with TTR [2] it was 36.87%; in the data set on TTR [3], 30.83%; in the data set with TTR [4], 10.20%.
Regarding “CUCUGCAUGCUCAUGGAAUG (tested as dual guide RNA, chemistry not given here) [CR003369]”, the “Avg % Deletion” value in the data set with TTR [1] came to 24.04%; in the data set on TTR [2], 17.38%; in the data set on TTR [3], 0.40%; in the data set with TTR [4] it was 0.70%. The “Avg % Edit” value with TTR [1] is recorded as 33.10%; in the data set on TTR [2], 24.19%; in the data set with TTR [3], 3.67%; in the data set on TTR [4], 1.60%. Also, the “Avg % Insert” value in the data set with TTR [1] was found to be 9.06%; with TTR [2], 7.12%; in the data set on TTR [3], 3.30%; in the data set with TTR [4] it was 0.90%.
Consider “GCCGUGGUGGAAUAGGAGUA (tested as dual guide RNA, chemistry not given here) [CR003387]”, for which the “Avg % Deletion” value in the data set with TTR [1] is listed as 16.92%; in the data set on TTR [2], 25.55%; in the data set on TTR [3], 0.20%; in the data set on TTR [4], 0.03%. The “Avg % Edit” value is 24.68% in the data set on TTR [1], 25.64% in the data set with TTR [2], 1.87% in the data set with TTR [3] and 7.87% with TTR [4]. Besides, the “Avg % Insert” value with TTR [1] is given as 7.75%; with TTR [2] it was 0.23%; in the data set with TTR [3], 1.70%; in the data set with TTR [4] it was 7.80%.
For “AUGCAGCUCUCCAGACUCAC (tested as dual guide RNA, chemistry not given here) [CR003358]”, the “Avg % Deletion” value in the data set on TTR [1] amounted to 4.14%; in the data set on TTR [2], 26.60%; in the data set with TTR [3] it was 0.80%; in the data set with TTR [4] it was 1.17%. Besides, the “Avg % Edit” value turned out to be 5.44% with TTR [1], 36.50% in the data set with TTR [2], 5.70% with TTR [3] and 3.90% with TTR [4]. Further, the “Avg % Insert” value in the data set with TTR [1] came to 1.29%; in the data set on TTR [2], 10.53%; in the data set on TTR [3], 4.93%; with TTR [4], 2.73%.
Consider “AAUAGGAGUAGGGGCUCAGC (tested as dual guide RNA, chemistry not given here) [CR003384]”, for which the “Avg % Deletion” value in the data set on TTR [1] is listed as 16.00%; in the data set with TTR [2], 16.29%; in the data set with TTR [3], 0.23%; in the data set with TTR [4] it was 0.20%. Further, the “Avg % Edit” value in the data set on TTR [1] was found to be 17.45%; with TTR [2] it was 17.03%; with TTR [3] it was 1.87%; with TTR [4] it was 1.70%. The “Avg % Insert” value in the data set on TTR [1] came out at 1.45%; with TTR [2], 0.84%; in the data set with TTR [3], 1.73%; in the data set with TTR [4], 1.50%.
As for “GCAACUUACCCAGAGGCAAA (tested as dual guide RNA, chemistry not given here) [CR003356]”, the “Avg % Deletion” value in the data set with TTR [1] worked out at 22.19%; in the data set with TTR [2], 31.31%; in the data set on TTR [3], 2.23%; in the data set with TTR [4] it was 2.67%. The “Avg % Edit” value is recorded as 32.21% with TTR [1], 49.63% with TTR [2], 9.97% in the data set with TTR [3] and 7.27% in the data set on TTR [4]. For the same sequence, the “Avg % Insert” value in the data set with TTR [1] is given as 10.03%; in the data set on TTR [2], 18.98%; in the data set with TTR [3], 7.80%; with TTR [4], 4.70%.
“AAAGGCUGCUGAUGACACCU (tested as dual guide RNA, chemistry not given here) [CR003353]”: the “Avg % Deletion” value in the data set on TTR [1] was 21.32%; with TTR [2], 62.87%; in the data set with TTR [3], 2.63%; with TTR [4] it was 4.43%. The “Avg % Edit” value in the data set with TTR [1] stood at 25.03%; in the data set with TTR [2], 69.18%; in the data set with TTR [3], 84.83%; with TTR [4] it was 53.73%. The “Avg % Insert” value is reported as 3.71% in the data set on TTR [1], 7.73% with TTR [2], 82.23% with TTR [3] and 49.50% in the data set with TTR [4].
